Source: patent publication US7332476B2, “Pyridyl substituted ketolide antibiotics” (Novartis AG, priority 2003, dated 2008)
In brackets after ≈: the same amount, converted by molar mass.

Columns and labels:
Experiment in all cases: MIC, broth microdilution (NCCLS)
[1] = test system: Streptococcus pneumoniae Stpn_297-749; type: cell-based; parameters: MIC, strain ID N: unit not given here; details: for MIC, strain ID N: broth microdilution; for MIC: Table 10, Strain ID N (Table 8): Streptococcus pneumoniae Stpn_297-749
How it was run: (§1)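 Broth microdilution per NCCLS in cation-adjusted Mueller-Hinton broth, with 2-5% lysed horse blood added for S. pneumoniae. Inoculum 3×10^5–7×10^5 CFU/ml, 2-fold drug dilutions, 18-24 h at 35° C; S. pneumoniae under 5-10% CO2, others ambient air. MIC = lowest concentration preventing visible growth.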

[2] = test system: Streptococcus pneumoniae Stpn_49619; type: cell-based; parameters: MIC, strain ID M: unit not given beside the values; details: for MIC, strain ID M: broth microdilution; for MIC: Table 10, Strain ID M (Table 8): Streptococcus pneumoniae Stpn_49619
How it was run: as §1

[3] = test system: Haemophilus influenzae Hain_960730503-3; type: cell-based; details: in µg/mL (unit assumed); for MIC, strain ID I: broth microdilution; for MIC: Table 10, Strain ID I (Table 8): Haemophilus influenzae Hain_960730503-3
Description: (§2) Strains. The bacterial isolates listed in Table 8 were cultivated from −70° C. frozen stocks by two consecutive overnight passages (P1, P2) at 35° C. on 5% blood agar (Remel, Lenexa, Kans.). Chocolate agar (Remel) is used for Haemophilus influenzae. H. influenzae and Streptococcus pneumoniae are incubated in 5-10% CO2
(§3) Drug Stock Preparation. To determine the amount of solvent to be used to give the desired final concentration, the formula “weight obtained in mg/final concentration in mg/ml” will be used. It will give the amount of solvent in ml needed to be added to give the desired concentration. For example, if 2.5 mg/ml is the desired concentration and the weight of compound is 13.7 mg, then the amount of solvent to be added is […]. Methanol is used as the solvent to dissolve the test compounds. Further dilution of stock is done in sterile, deionized water. Drug stocks are kept frozen at −70° C., protected from light.
(§4) Susceptibility Testing. MICs are determined by the broth microdilution method in accordance with the NCCLS guidelines. In brief, organism suspensions are adjusted to a 0.5 McFarland standard to yield a final inoculum between 3×10^5 and 7×10^5 CFU/ml. Drug dilutions and inocula are made in sterile, cation adjusted Mueller-Hinton Broth (CAMHB) (Remel) for all but S. pneumoniae [CAMHB with 2-5% lysed horse blood (Remel)] and H. influenzae [Haemophilus Test Medium (Remel)]. An inoculum volume of 100 μl is added to wells containing 100 μl of broth with 2-fold serial dilutions of drug. All inoculated microdilution trays are incubated in ambient air at 35° C. for 18-24 hours, except for S. pneumoniae, and H. influenzae (both at 5-10% CO2).
(§5) Following appropriate incubation, the MIC is determined and the MIC is defined as the lowest concentration of the drug that prevented visible growth. […] Antibacterial activity of representative compounds of the invention were compared against telitromycin.

[4] = test system: Haemophilus influenzae Hain_960820544-3; type: cell-based; details: in µg/mL (unit assumed); for MIC, strain ID J: broth microdilution; for MIC: Table 10, Strain ID J (Table 8): Haemophilus influenzae Hain_960820544-3
Description: as §2, §3, §4, §5

[5] = test system: Enterococcus faecalis Enfa_bc 11148-2; type: cell-based; details: in µg/mL (unit assumed); for MIC, strain ID F: broth microdilution; for MIC: Table 10, Strain ID F (Table 8): Enterococcus faecalis Enfa_bc 11148-2
Description: as §2, §3, §4, §5

[6] = test system: Haemophilus influenzae Hain_953460299-3; type: cell-based; details: in µg/mL (unit assumed); for MIC, strain ID K: broth microdilution; for MIC: Table 10, Strain ID K (Table 8): Haemophilus influenzae Hain_953460299-3
Description: as §2, §3, §4, §5

[7] = test system: Staphylococcus aureus Stau_33591; type: cell-based; details: unit assumed; for MIC, strain ID B: broth microdilution; for MIC: Table 10, Strain ID B (Table 8): Staphylococcus aureus Stau_33591
Description: as §2, §3, §4, §5

[8] = test system: Haemophilus influenzae Hain_2762; type: cell-based; details: in µg/mL (unit assumed); for MIC, strain ID L: broth microdilution; for MIC: Table 10, Strain ID L (Table 8): Haemophilus influenzae Hain_2762
Description: as §2, §3, §4, §5

[9] = test system: Streptococcus pyogenes Stpy_8668; type: cell-based; parameters: MIC, strain ID G: unit not given beside the values; details: for MIC, strain ID G: broth microdilution; for MIC: Table 10, Strain ID G (Table 8): Streptococcus pyogenes Stpy_8668
How it was run: as §1

[10] = test system: Streptococcus pneumoniae Stpn_280-962; type: cell-based; parameters: MIC, strain ID O: unit not given beside the values; details: for MIC, strain ID O: broth microdilution; for MIC: Table 10, Strain ID O (Table 8): Streptococcus pneumoniae Stpn_280-962
How it was run: as §1

[11] = test system: Enterococcus faecalis Enfa_29212; type: cell-based; details: for MIC, strain ID E: broth microdilution; for MIC: Table 10, Strain ID E (Table 8): Enterococcus faecalis Enfa_29212
How it was run: as §1

[12] = test system: Streptococcus pneumoniae Stpn_Erm S 4297; type: cell-based; details: for MIC, strain ID Q: broth microdilution, in µg/mL (unit assumed); for MIC: Table 10, Strain ID R (Table 8): Streptococcus pneumoniae Stpn_Erm S 4297, unit assumed
How it was run: as §1

[13] = test system: Staphylococcus aureus Stau_29213; type: cell-based; details: in µg/mL (unit assumed); for MIC, strain ID A: broth microdilution; for MIC: Table 10, Strain ID A (Table 8): Staphylococcus aureus Stau_29213
How it was run: as §1

[14] = test system: Staphylococcus epidermidis Step_14990; type: cell-based; details: in µg/mL (unit assumed); for MIC, strain ID C: broth microdilution; for MIC: Table 10, Strain ID C (Table 8): Staphylococcus epidermidis Step_14990
How it was run: as §1

[15] = test system: Haemophilus influenzae Hain_49247; type: cell-based; details: unit assumed; for MIC, strain ID H: broth microdilution; for MIC: Table 10, Strain ID H (Table 8): Haemophilus influenzae Hain_49247
[16] = test system: Staphylococcus epidermidis Step_f50654; type: cell-based; details: in µg/mL (unit assumed); for MIC, strain ID D: broth microdilution; for MIC: Table 10, Strain ID D (Table 8): Staphylococcus epidermidis Step_f50654
How it was run: as §1

[17] = test system: S. pneumoniae Stpn_Erm 6849; type: cell-based, Streptococcus pneumoniae; details: strain ID P; broth microdilution; in µg/mL (unit assumed)
How it was run: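 Lowest drug concentration giving no visible growth after 18-24 hours at 35° C. under 5-10% CO2 was taken as MIC. Twofold serial dilutions in CAMHB plus 2-5% lysed horse blood, final inoculum 3×10^5–7×10^5 CFU/ml, per NCCLS microdilution.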

[18] = test system: Streptococcus pneumoniae Stpn_Mef 5654; type: cell-based; details: Table 10, Strain ID P (Table 8): Streptococcus pneumoniae Stpn_Mef 5654; in µg/mL (unit assumed)
How it was run: as §1

[19] = test system: Streptococcus pneumoniae Stpn_Mef S 3427; type: cell-based; details: Table 10, Strain ID Q (Table 8): Streptococcus pneumoniae Stpn_Mef S 3427; in µg/mL (unit assumed)
How it was run: as §1

SMILES	MIC, strain ID N [1]	MIC, strain ID M [2]	MIC, strain ID I [3]	MIC, strain ID J [4]	MIC, strain ID F [5]	MIC, strain ID K [6]	MIC, strain ID B [7] [µg/mL]	MIC, strain ID L [8]	MIC, strain ID G [9]	MIC, strain ID O [10]	MIC, strain ID Q [12]	MIC, strain ID A [13]	MIC, strain ID C [14]	MIC, strain ID H [15] [µg/mL]	MIC, strain ID D [16]	MIC, strain ID P [17]	MIC, strain ID E ([11]; in µg/mL (unit assumed))	MIC [1]	MIC [2]	MIC [3]	further results
CC[C@H]1OC(=O)[C@H](C)C(=O)[C@H](C)[C@@H](OC2O[C@H](C)C[C@H](N(C)C)[C@H]2O)[C@@](C)(OC)C[C@@H](C)C(=O)[C@H](C)[C@@H]2[C@@H]1OC(=O)N2CCCCn1cnc(-c2ccc(Cl)nc2)c1 (stereo partly drawn) [XXVIII]	=0.05	=0.05	6.25	6.25	0.4	12.5	> 50	1.56	=0.05	=0.05	0.1	0.2	0.1	6.25 (≈ 7.51 µM)	0.2	0.78	–	–	–	–	MIC, strain ID E [11]: =0.05
C=C[C@]12OC(=O)N(CCCCn3cnc(-c4cnccc4OC)c3)[C@@H]1[C@@H](C)C(=O)[C@H](C)C[C@](C)(OC)[C@H](OC1O[C@H](C)C[C@H](N(C)C)[C@H]1O)[C@@H](C)C(=O)[C@@H](C)C(=O)O[C@@H]2CC (stereo partly drawn) [XXXV]	=0.05	=0.05	6.25	6.25	0.78	6.25	> 50	1.56	=0.05	=0.05	0.2	0.2	0.1	6.25 (≈ 7.32 µM)	0.1	0.78	0.1	–	–	–	–
C=C[C@]12OC(=O)N(CCCCn3cnc(-c4cccnc4Cl)c3)[C@@H]1[C@@H](C)C(=O)[C@H](C)C[C@](C)(OC)[C@H](OC1O[C@H](C)C[C@H](N(C)C)[C@H]1O)[C@@H](C)C(=O)[C@@H](C)C(=O)O[C@@H]2CC (stereo partly drawn) [XXXVI]	=0.05	=0.05	6.25	6.25	1.56	6.25	> 50	1.56	=0.05	=0.05	0.1	0.2	0.1	3.13 (≈ 3.65 µM)	0.2	0.78	0.1	–	–	–	–
CC[C@H]1OC(=O)[C@H](C)C(=O)[C@H](C)[C@@H](OC2O[C@H](C)C[C@H](N(C)C)[C@H]2O)[C@@](C)(OC)C[C@@H](C)C(=O)[C@H](C)[C@H]2N(CCCCn3cnc(-c4ccc(F)nc4)c3)C(=O)O[C@]12CC (stereo partly drawn) [XV]	–	–	–	–	–	–	–	–	–	–	–	–	–	–	–	–	–	=0.05	=0.05	6.25	MIC [4]: 6.25; MIC [5]: 0.78; MIC [6]: 3.13; MIC [7]: > 50 µg/mL; MIC [8]: 0.78; MIC [9]: =0.05; MIC [10]: =0.05; MIC [18]: 0.4; MIC ([11]; in µg/mL (unit assumed)): 0.1; MIC [12]: 0.1 µg/mL (≈ 0.118 µM); MIC [19]: 0.1; MIC [13]: 0.4; MIC [14]: 0.2; MIC [15]: 3.13 µg/mL (≈ 3.71 µM); MIC [16]: 0.2
C=C[C@]12OC(=O)N(CCCCn3cnc(-c4ccc(OCC)nc4)c3)[C@@H]1[C@@H](C)C(=O)[C@H](C)C[C@](C)(OC)[C@H](OC1O[C@H](C)C[C@H](N(C)C)[C@H]1O)[C@@H](C)C(=O)[C@@H](C)C(=O)O[C@@H]2CC (stereo partly drawn) [XXII]	–	–	–	–	–	–	–	–	–	–	–	–	–	–	–	–	–	=0.05	=0.05	6.25	MIC [4]: 3.13; MIC [5]: 25; MIC [6]: 12.5; MIC [7]: > 50 µg/mL; MIC [8]: 1.56; MIC ([9]; unit assumed): 0.1 µg/mL (≈ 0.115 µM); MIC [10]: =0.05; MIC [18]: 0.78; MIC ([11]; in µg/mL (unit assumed)): 0.2; MIC [12]: 1.56 µg/mL (≈ 1.8 µM); MIC [19]: 0.78; MIC [13]: 0.4; MIC [14]: 0.4; MIC [15]: 6.25 µg/mL (≈ 7.2 µM); MIC [16]: 0.4
